In data set [1] the target is single-chain tethered dimer of HIV protease (Human immunodeficiency virus 1, UniProt P04585). Briefly: biochemical. The format is biochemical. The method, then:
HIV Protease Inhibition Assay—HPLC Method
Active protease was prepared as described therein by extraction with 67% acetic acid, dilution 33-fold with water, dialysis against water and then against a “refolding buffer” consisting of 20 mM MES, 1 mM dithiothreitol and 10% glycerol. Protease was stored as a stock preparation at 10 uM in refolding buffer.
Substrate: Peptide of sequence: aminobenzoyl-Ala-Thr-His-Gln-Val-Tyr-Phe(NO2)-Val-Arg-Lys-Ala containing p-nitrophenylalanine, was prepared by solid phase synthesis as previously described Cheng et al., op.cit. Stock solutions of 2 mM substrate were prepared in DMSO.
Inhibitory compounds were dissolved in sufficient DMSO to make 3 mM stock solutions. All further dilutions were prepared in “assay buffer”: 1M NaCl, 50 mM MES, pH 5.5, 1 mM EDTA, 1 mM DTT, […] glycerol.
Enzyme reaction: In a 2 ml screw-cap centrifuge tube were added 50 ul protease (final concentration 0.25 nM) and 0.1 ml inhibitory compound (final concentration […]). After 15 min preincubation at room temperature, the reaction was started with the addition of 0.05 ml substrate (final concentration 5 uM). Incubation was carried out at 30 C. for 1 hr. The reaction was stopped with 1 ml 0.1M ammonium hydroxide.
HPLC measurement of product formation: The product (aminobenzoyl-Ala-Thr-His-Gln-Val-Tyr) was separated from substrate on a Pharmacia MonoQ anion exchange column. The injection volume was 0.2 ml. The mobile phases were: A (20 mM trisHCl, pH 9.0, 0.02% sodium Azide, 10% acetonitrile), B (20 mM tris HCl, pH 9.0, 0.02% sodium azide, 0.5M ammonium formate, 10% acetonitrile). The mobile phases were pumped at 1 ml/min, with a gradient from 0 to 30% B in 5 min, 100% B for 4 min to wash the column, and a re-equilibration for 4 min. The retention time of the product was 3.6 min. Detection with a Shimadzu model RF535 fluorescence monitor was at 330 nm (excitation) and 430 (emission).

In data set [2] the test system is HIV-1 (RF) in MT-2 cells. In words: microbe, parasite or virus in culture. The format is cell-based. To be noted: Human immunodeficiency virus 1, MT2, HIV RNA assay, HIV-1 infected MT-2 cells; class symbols; read-out: IC90. The method, boiled down:
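Read-out: gag and pol viral RNA captured by 5′-biotinylated oligonucleotides on streptavidin-coated wells, detected with alkaline phosphatase-linked reporter oligonucleotides, calibrated against BH10 in vitro transcripts. Virus stocks (RF, MN, IIIB) come from H9 cultures; MT-2 host cells kept in RPMI 1640, 5% FCS.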

Data set [3] deals with HIV(3B) or HIV(RF) in MT-2 cells. The format is cell-based. Also noted: scale not given here. The settings on record: Table E, whole cell infectivity assay. As to the method:
HIV Low Multiplicity Assay
Materials: MT-2, a human T-cell line, was cultured in RPMI medium supplemented with 5% (v/v) heat inactivated fetal calf serum (FCS), L-glutamine and gentamycin (GIBCO). Human immunodeficiency virus strains HIV (3B) and HIV (RF) were propagated in H-9 cells in RPMI with 5% FCS. XTT, benzene-sulfonic acid, 3,3′-[1-[(phenylamino) carbonyl]-3,4-tetrazolium]bis (4-methoxy-6nitro)-, sodium salt, was obtained from Starks Associates, Inc.
Method: Test compounds were dissolved in dimethylsulfoxide to 5 mg/ml and serially diluted into RPMI medium to ten times the desired final concentration. MT-2 cells (5×10^4/0.1 mL) were added to each well of a 96 well culture plate and 0.02 mL of the appropriate test compound solution was added to the cells such that each compound concentration was present in two wells. The cells and compounds were allowed to sit for 30 minutes at room temperature. HIV(3B) or HIV(RF) (−5×10^5 plaque foaming units/mL) was diluted in medium and added to the cell and compound mixtures to give a multiplicity of infection of 0.01 plaque forming unit/cell. The mixtures were incubated for 7 days at 36° C., during which time the virus replicated and caused the death of unprotected cells. The percentage of cells protected from virus induced cell death was determined by the degree of metabolism of the tetrazolium dye, XTT. In living cells, XTT was metabolized to a colored formazan product which was quantitated spectrophotometrically at 450 nm. The amount of colored formazan was proportional to the number of cells protected from virus by the test compound. The concentration of compound protecting either 50% (IC50) or 90% (IC90) with respect to an uninfected cell culture was determined.

By Ki is commonly meant the dissociation constant of the complex between target and ligand, obtained from inhibition or displacement. As usually defined, the IC90 is the point of the concentration-response curve where the effect stands at 90%. For orientation: melting point means the temperature, or range, at which the solid turns liquid.

Molecules are shown by their SMILES. Values after ≈ are worked out from the molar mass of the structure shown.

In the case of `N#Cc1ccc(CN2C(=O)N(Cc3ccc(C#N)cc3)C(Cc3ccccc3)C(O)C(O)C2Cc2ccccc2)cc1` (centres unmarked) [Example 5W], the melting point was 140 to 143 °C. Besides, the Ki in data set [1] is under 10 nM. Moreover, the IC90 in data set [2] was under 10 µg/mL.

For `CC(C)(C)CCN1C(=O)N(CCC(C)(C)C)C(Cc2ccccc2)C(O)C(O)C1Cc1ccccc1` (centres unmarked) [Example 3P], the melting point was 242 to 245 °C. This molecule gave a Ki in data set [1] of 10 to 1000 nM. Besides, the IC90 in data set [2] is over 100 µg/mL.

Take `O=C1N(Cc2ccncc2)C(Cc2ccccc2)C(O)C(O)C(Cc2ccccc2)N1Cc1ccc2ccccc2c1` (centres unmarked) [Example 4Z]: the melting point is 118 to 121 °C. The Ki in data set [1] is under 10 nM. In addition, the IC90 in data set [2] is under 10 µg/mL.

`O=C1N(Cc2ccc(O)cc2)C(Cc2ccccc2)C(O)C(O)C(Cc2ccccc2)N1Cc1ccc(O)cc1` (centres unmarked) [Example 5R] showed a melting point of 115 to 117 °C. Besides, the Ki in data set [1] was under 10 nM. Also, the IC90 in data set [2] is under 10 µg/mL.

Consider `CC(C)=CCN1C(=O)N(Cc2ccccc2)C(Cc2ccccc2)C(O)C(O)C1Cc1ccccc1` (centres unmarked) [Example 3Y], for which the melting point lay within 173 to 174 °C. The same molecule registered an inhibition constant Ki in data set [1] of under 10 nM. The IC90 in data set [2] was under 10 µg/mL.

Molecule `O=C1N(Cc2c(F)c(F)c(F)c(F)c2F)C(Cc2ccccc2)C(O)C(O)C(Cc2ccccc2)N1Cc1c(F)c(F)c(F)c(F)c1F` (centres unmarked) [Example 4J] had a melting point of 193 to 195 °C. The molecule further displayed a Ki in data set [1] of over 1000 nM. Moreover, the IC90 in data set [2] is under 10 µg/mL.

Molecule `CCN1C(=O)N(Cc2ccccc2)C(Cc2ccccc2)C(O)C(O)C1Cc1ccccc1` (centres unmarked) [Example 4A] displayed a melting point of 190 to 193 °C. Moreover, in data set [1], the Ki is under 10 nM. For the same molecule, the IC90 in data set [2] is under 10 µg/mL.

In turn, `O=C1NC(Cc2ccccc2)C(O)C(O)C(Cc2ccccc2)N1Cc1ccc(F)cc1` (centres unmarked) [Example 6ZF] gave a melting point of 188.9 °C. In data set [1], this molecule registered a Ki of under 10 nM. In addition, the IC90 in data set [2] was under 10 µg/mL.

As to `O=C1N(Cc2ccc(OCc3ccccc3)cc2)C(Cc2ccccc2)C(O)C(O)C(Cc2ccccc2)N1Cc1ccc(OCc2ccccc2)cc1` (centres unmarked) [Example 5P], the melting point lay within 80 to 81 °C. In data set [1], this molecule returned a Ki of over 1000 nM. For the same molecule, the IC90 in data set [2] is over 100 µg/mL.

`O=C1N(Cc2ccc3ccccc3c2)C(Cc2ccccc2)C(O)C(O)C(Cc2ccccc2)N1Cc1ccccn1` (centres unmarked) [Example 4Y] had a melting point of 165 to 166 °C. Also, in data set [1], the Ki was in the range of 10 to 1000 nM. In addition, the IC90 in data set [2] was under 10 µg/mL.

Regarding `O=C1N(Cc2cccc(C=NO)c2)C(Cc2ccccc2)C(O)C(O)C(Cc2ccccc2)N1Cc1cccc(C=NO)c1` (centres unmarked) [Example 6C], the melting point was 185 to 189 °C. In data set [1], this molecule came in with a Ki of under 10 nM. The IC90 in data set [2] is under 10 µg/mL.

Turning to `O=C1N(Cc2cc(F)cc(F)c2)C(Cc2ccccc2)C(O)C(O)C(Cc2ccccc2)N1Cc1cc(F)cc(F)c1` (centres unmarked) [Example 6ZC], the melting point was 167.9 °C. Also, the Ki in data set [1] lay within 10 to 1000 nM. Also, the IC90 in data set [2] is 10 to 100 µg/mL (≈ 17.3 to 173 µM).

`O=C1N(Cc2ccc3ccccc3c2)C(Cc2ccccc2)C(O)C(O)C(Cc2ccccc2)N1CC1CC1` (centres unmarked) [Example 4K] had a melting point of 175 to 178 °C. The molecule also displayed a Ki in data set [1] of under 10 nM. The IC90 in data set [2] was under 10 µg/mL.

As for `CCCCN1C(=O)N(Cc2ccc3ccccc3c2)C(Cc2ccccc2)C(O)C(O)C1Cc1ccccc1` (centres unmarked) [Example 4U], the melting point is 78 to 80 °C. Moreover, the Ki in data set [1] is under 10 nM. In addition, the IC90 in data set [2] was under 10 µg/mL.

As to `CC(C)N1C(=O)N(Cc2cccc(O)c2)C(Cc2ccccc2)C(O)C(O)C1Cc1ccccc1` (centres unmarked) [Example 5Z], the melting point fell in the range of 212 to 213 °C. The Ki in data set [1] was under 10 nM. Besides, the IC90 in data set [2] is under 10 µg/mL.

The molecule `O=C1N(Cc2ccccc2)C(Cc2ccccc2)C(O)C(O)C(Cc2ccccc2)N1Cc1ccc2ccccc2c1` (centres unmarked) [Example 4M] displayed a melting point of 90 to 92 °C. The inhibition constant (Ki) in data set [1] is under 10 nM. Also, in data set [2], the IC90 is under 10 µg/mL.

Turning to `O=C1N(Cc2cc(Cl)cc(Cl)c2)C(Cc2ccccc2)C(O)C(O)C(Cc2ccccc2)N1Cc1cc(Cl)cc(Cl)c1` (centres unmarked) [Example 6ZJ], the melting point was 231.1 °C. The molecule also came in with a Ki in data set [1] of 10 to 1000 nM. Further, in data set [2], the IC90 lay within 10 to 100 µg/mL (≈ 15.5 to 155 µM).

For `O=C1NC(Cc2ccccc2)C(O)C(O)C(Cc2ccccc2)N1Cc1ccc2ccccc2c1` (centres unmarked) [Example 4V], the melting point was 210 to 213 °C. Also, the inhibition constant Ki in data set [1] is under 10 nM. Further, in data set [2], the IC90 was under 10 µg/mL.

In turn, `COCCN1C(=O)N(CCOC)C(Cc2ccccc2)C(O)C(O)C1Cc1ccccc1` (centres unmarked) [Example 3N] returned a melting point of 183 to 185 °C. This molecule also displayed an inhibition constant Ki in data set [1] of 10 to 1000 nM. For the same molecule, in data set [2], the IC90 was over 100 µg/mL.

In turn, `O=C1N(Cc2cccc(Br)c2)C(Cc2ccccc2)C(O)C(O)C(Cc2ccccc2)N1Cc1cccc(Br)c1` (centres unmarked) [Example 6ZE] yielded a melting point of 210.7 °C. The molecule further gave a Ki in data set [1] of under 10 nM. Further, the IC90 in data set [2] was under 10 µg/mL.

Take `O=Cc1cccc(CN2C(=O)N(Cc3cccc(C=O)c3)C(Cc3ccccc3)C(O)C(O)C2Cc2ccccc2)c1` (centres unmarked) [Example 5V]: the melting point was in the range of 175 to 176 °C. Besides, the Ki in data set [1] is under 10 nM. Moreover, in data set [2], the IC90 was under 10 µg/mL.

`CCOCCN1C(=O)N(CCOCC)C(Cc2ccccc2)C(O)C(O)C1Cc1ccccc1` (centres unmarked) [Example 3R]: the melting point lay within 148 to 150 °C. Moreover, the Ki in data set [1] is over 1000 nM. Also, the IC90 in data set [2] was over 100 µg/mL.

As for `O=C1N(Cc2ccc3ccccc3c2)C(Cc2ccccc2)C(O)C(O)C(Cc2ccccc2)N1CC1CCCC1` (centres unmarked) [Example 4L], the melting point fell in the range of 89 to 92 °C. The Ki in data set [1] was under 10 nM. Also, the IC90 in data set [2] is under 10 µg/mL.

In turn, `CCCN1C(=O)N(CCC)C(Cc2ccccc2)C(O)C(O)C1Cc1ccccc1` (centres unmarked) [Example 1AF] had a melting point of 180 to 182 °C. For the same molecule, the IC90 entry in data set [3] was “+ + +”.

The molecule `C=CCOc1cccc(CN2C(=O)N(Cc3cccc(OCC=C)c3)C(Cc3ccccc3)C(O)C(O)C2Cc2ccccc2)c1` (centres unmarked) [Example 5L] returned a melting point of 170 to 172 °C. The Ki in data set [1] was under 10 nM. Besides, the IC90 in data set [2] was over 100 µg/mL.

The molecule `C=CCN1C(=O)N(Cc2ccc3ccccc3c2)C(Cc2ccccc2)C(O)C(O)C1Cc1ccccc1` (centres unmarked) [Example 4S] yielded a melting point of 72 to 74 °C. Moreover, in data set [1], the Ki was under 10 nM. Further, the IC90 in data set [2] is under 10 µg/mL.

`CCOc1cccc(CN2C(=O)N(Cc3cccc(OCC)c3)C(Cc3ccccc3)C(O)C(O)C2Cc2ccccc2)c1` (centres unmarked) [Example 5N] returned a melting point of 185 to 186 °C. The Ki in data set [1] lay within 10 to 1000 nM. Also, the IC90 in data set [2] was over 100 µg/mL.

In the case of `C=CCOc1cccc(CN2C(=O)N(Cc3cccc(O)c3)C(Cc3ccccc3)C(O)C(O)C2Cc2ccccc2)c1` (centres unmarked) [Example 5M], the melting point was 78 to 79 °C. In data set [1], this molecule displayed a Ki of under 10 nM. The IC90 in data set [2] was under 10 µg/mL.

In the case of `O=C1N(Cc2cccc(Cl)c2)C(Cc2ccccc2)C(O)C(O)C(Cc2ccccc2)N1Cc1cccc(Cl)c1` (centres unmarked) [Example 6X], the melting point was found to be 210.3 °C. Besides, the Ki in data set [1] was under 10 nM. Besides, the IC90 in data set [2] was under 10 µg/mL.

Regarding `C=CCN1C(=O)N(Cc2ccccn2)C(Cc2ccccc2)C(O)C(O)C1Cc1ccccc1` (centres unmarked) [Example 5C], the melting point was 160 to 162 °C. In data set [1], the Ki was in the range of 10 to 1000 nM. Further, in data set [2], the IC90 was under 10 µg/mL.
